Starred links: 1 amine or outer side, 2 acyl side, 3 side chain; linkers in the order of their positions; H or OH if unused. Non-standard residues stand in square brackets, D forms with d. No end group written: not given here. γGlu = O=C(O)[C@H](CCC(=O)[*:2])N[*:1]; Abu = CC[C@H](N)C(=O)O
Assay: Fat-like richness and smoothness imparted to low-fat milk, quantitative sensory evaluation test
Assay type: in vivo, human
Details: for Fat-like richness / Smoothness: n=12, control 0, strong 3, very strong 5 points
Experimental: (§1) The quantitative sensory evaluation test was performed as follows. Each of γ-Glu-Cys-Gly (glutathione), γ-Glu-Val-Gly, and γ-Glu-Abu-Gly was mixed with commercially-available low-fat milk (non-fat milk solids content: 8.6% or more, milk fat content: 1.5%) at a concentration of 0.00001 to 1 g/dl, and the intensity of imparting fat-like richness was measured.
It should be noted that each peptide was dissolved in low-fat milk, and then a sample, the pH of which was lowered, was adjusted with NaOH so that the pH might be ±0.2 with respect to the pH of the low-fat milk free of peptide.
The sensory score for fat-like richness and smoothness was defined as follows: control (free of peptide): 0 point; strong: 3 points; and very strong: 5 points. Then, the test was performed with n=12. […] As clear from Table 6, it was confirmed that the peptide imparted fat-like richness and smoothness to low-fat milk at a lower concentration than glutathione.
as §1, with “γ-Glu-Val-Gly” for “γ-Glu-Cys-Gly (glutathione), γ-Glu-Val-Gly,”, “cinacalcet” for “γ-Glu-Abu-Gly”
It should be noted that each sample was dissolved in low-fat milk, and then a sample, the pH of which was lowered, was adjusted with NaOH so that the pH might be ±0.2 with respect to the pH of the low-fat milk free of a sample.
The sensory score for fat-like richness and smoothness was defined as follows: control (free of sample): 0 point; strong: 3 points; and very strong: 5 points. Then, the test was performed with n=12.

[1] = 0.001 g/dl in low-fat milk, Table 6
[2] = 0.01 g/dl in low-fat milk (milk fat 1.5%), Table 6
[3] = 0.01 g/dl in low-fat milk, Table 6
[4] = 0.0001 g/dl in low-fat milk, Table 6
[5] = 0.001 g/dl in low-fat milk, Table 8

Molecule | Fat-like richness [1] [points] | Smoothness [1] [points] | Fat-like richness [2] [points] | Smoothness [3] [points] | Taste profile [4] | Fat-like richness [4] [points] | Smoothness [4] [points] | Taste profile [1] | Taste profile [5] | Fat-like richness [5] [points] | Smoothness [5] [points] | Taste profile [3]
[γGlu]-[Abu]-Gly | 2.3 | 3.0 | 4.3 | 4.0 | – | – | – | – | – | – | – | –
[γGlu]-Val-Gly | 4.5 | 4.0 | – | – | Taste is enhanced in middle | 2.5 | 2.3 | Taste is enhanced in middle | Taste is enhanced in middle taste | 4.5 | 4.0 | –
N[C@@H](CCC(=O)N[C@@H](CS)C(=O)NCC(=O)O)C(=O)O [γ-Glu-Cys-Gly, reference compound] | – | – | 2.5 | 3.0 | – | – | – | – | – | – | – | Growth exists in the whole

From patent US8399417B2, “Food” (Ajinomoto Co., Inc., priority 2007, dated 2013)
